Results: ChEMBL document CHEMBL1137662, “Effect of oral treatment with hexadecyloxypropyl-[(S)-9-(3-hydroxy-2- phosphonylmethoxypropyl)adenine] [(S)-HPMPA] or octadecyloxyethyl-(S)-HPMPA on cowpox or vaccinia virus infections in mice” (Antimicrob Agents Chemother, 2007)

Key:
[1] = system: Vaccinia virus; test: Antiviral activity against Vaccinia virus WR infected BALB/c mouse assessed as mean death day at 3 mg/kg, po treated for 5 days after 48 hrs of viral inoculation; assay type: functional, Orthopoxvirus vaccinia
[2] = system: Vaccinia virus; test: Antiviral activity against Vaccinia virus WR infected BALB/c mouse assessed as mean death day at 30 mg/kg, po treated for 5 days after 72 hrs of viral inoculation; assay type: functional, Orthopoxvirus vaccinia
[3] = Cytotoxicity against HFF cells after 7 days; assay type: cell-based; details: human
[4] = Selectivity index, ratio of CC50 for HFF cells to EC50 for Vaccinia virus Copenhagen; assay type: toxicity, cell-based; details: human, read-out: Ratio CC50/EC50
[5] = system: Vaccinia virus; test: Antiviral activity against Vaccinia virus WR infected BALB/c mouse assessed as log reduction of viral titer per gram of liver at 30 mg/kg, po treated for 5 days after 24 hrs of viral inoculation; assay type: functional, Orthopoxvirus vaccinia
[6] = system: Cowpox virus; test: Antiviral activity against Cowpox virus Brighton infected BALB/c mouse assessed as mortality at 30 mg/kg, po treated for 5 days after 24 hrs of viral inoculation; assay type: functional, Cowpox virus (Brighton Red)
[7] = system: Vaccinia virus; test: Antiviral activity against Vaccinia virus WR infected BALB/c mouse assessed as mean death day at 3 mg/kg, po treated for 5 days after 24 hrs of viral inoculation; assay type: functional, Orthopoxvirus vaccinia
[8] = system: Vaccinia virus; test: Antiviral activity against Vaccinia virus WR infected BALB/c mouse assessed as mortality at 10 mg/kg, po treated for 5 days after 48 hrs of viral inoculation; assay type: functional, Orthopoxvirus vaccinia
[9] = system: Vaccinia virus; test: Antiviral activity against Vaccinia virus WR infected BALB/c mouse assessed as log reduction of viral titer per gram of kidney at 30 mg/kg, po treated for 5 days after 24 hrs of viral inoculation; assay type: functional, Orthopoxvirus vaccinia
[10] = system: Vaccinia virus; test: Antiviral activity against Vaccinia virus WR infected BALB/c mouse assessed as mortality at 30 mg/kg, po treated for 5 days after 72 hrs of viral inoculation; assay type: functional, Orthopoxvirus vaccinia
[11] = system: Vaccinia virus; test: Antiviral activity against Vaccinia virus WR infected BALB/c mouse assessed as mortality at 3 mg/kg, po treated for 5 days after 24 hrs of viral inoculation; assay type: functional, Orthopoxvirus vaccinia
[12] = system: Cowpox virus; test: Antiviral activity against Cowpox virus Brighton infected BALB/c mouse assessed as mortality at 30 mg/kg, po treated for 5 days after 72 hrs of viral inoculation; assay type: functional, Cowpox virus (Brighton Red)
[13] = system: Vaccinia virus; test: Antiviral activity against Vaccinia virus WR infected BALB/c mouse assessed as mean death day at 30 mg/kg, po treated for 5 days after 48 hrs of viral inoculation; assay type: functional, Orthopoxvirus vaccinia
[14] = Selectivity index, ratio of CC50 for HFF cells to EC50 for Vaccinia virus WR; assay type: toxicity, cell-based; details: human, read-out: Ratio CC50/EC50
[15] = system: Vaccinia virus; test: Antiviral activity against Vaccinia virus WR infected BALB/c mouse assessed as mean death day at 3 mg/kg, po treated for 5 days after 72 hrs of viral inoculation; assay type: functional, Orthopoxvirus vaccinia
[16] = system: Cowpox virus; test: Antiviral activity against Cowpox virus Brighton infected BALB/c mouse assessed as mean death day at 3 mg/kg, po treated for 5 days after 72 hrs of viral inoculation; assay type: functional, Cowpox virus (Brighton Red)
[17] = system: Cowpox virus; test: Antiviral activity against Cowpox virus Brighton infected BALB/c mouse assessed as mean death day at 10 mg/kg, po treated for 5 days after 24 hrs of viral inoculation; assay type: functional, Cowpox virus (Brighton Red)
[18] = system: Cowpox virus; test: Antiviral activity against Cowpox virus Brighton infected BALB/c mouse assessed as log reduction of viral titer per gram of liver at 30 mg/kg, po treated for 5 days after 24 hrs of viral inoculation; assay type: functional, Cowpox virus (Brighton Red)
[19] = system: Vaccinia virus; test: Antiviral activity against Vaccinia virus Copenhagen in HFF cells assessed as reduction of viral replication after 3 days; assay type: functional, organism-based; details: Orthopoxvirus vaccinia, 72 h
[20] = system: Vaccinia virus; test: Antiviral activity against Vaccinia virus WR infected BALB/c mouse assessed as log reduction of viral titer per gram of spleen at 30 mg/kg, po treated for 5 days after 24 hrs of viral inoculation; assay type: functional, Orthopoxvirus vaccinia
[21] = system: Vaccinia virus; test: Antiviral activity against Vaccinia virus WR infected BALB/c mouse assessed as mortality at 3 mg/kg, po treated for 5 days after 72 hrs of viral inoculation; assay type: functional, Orthopoxvirus vaccinia
[22] = system: Cowpox virus; test: Antiviral activity against Cowpox virus Brighton infected BALB/c mouse assessed as mean death day at 3 mg/kg, po treated for 5 days after 48 hrs of viral inoculation; assay type: functional, Cowpox virus (Brighton Red)
[23] = system: Cowpox virus; test: Antiviral activity against Cowpox virus Brighton in HFF cells assessed as reduction of viral replication after 3 days; assay type: functional, organism-based, Cowpox virus (Brighton Red); details: 72 h
[24] = system: Mus musculus; test: Toxicity in BALB/c mouse at 30 mg/kg, po; assay type: organism-based; design: dose 30 mg/kg, route oral; details: in vivo
[25] = system: Cowpox virus; test: Antiviral activity against Cowpox virus Brighton infected BALB/c mouse assessed as mean death day at 3 mg/kg, po treated for 5 days after 24 hrs of viral inoculation; assay type: functional, Cowpox virus (Brighton Red)
[26] = system: Cowpox virus; test: Antiviral activity against Cowpox virus Brighton infected BALB/c mouse assessed as mean death day at 30 mg/kg, po treated for 5 days after 48 hrs of viral inoculation; assay type: functional, Cowpox virus (Brighton Red)
[27] = system: Cowpox virus; test: Antiviral activity against Cowpox virus Brighton infected BALB/c mouse assessed as log reduction of viral titer per gram of kidney at 30 mg/kg, po treated for 5 days after 24 hrs of viral inoculation; assay type: functional, Cowpox virus (Brighton Red)
[28] = system: Vaccinia virus; test: Antiviral activity against Vaccinia virus WR infected BALB/c mouse assessed as mean death day at 30 mg/kg, po treated for 5 days after 24 hrs of viral inoculation; assay type: functional, Orthopoxvirus vaccinia
[29] = system: Vaccinia virus; test: Antiviral activity against Vaccinia virus WR infected BALB/c mouse assessed as mean death day at 10 mg/kg, po treated for 5 days after 48 hrs of viral inoculation; assay type: functional, Orthopoxvirus vaccinia
[30] = system: Cowpox virus; test: Antiviral activity against Cowpox virus Brighton infected BALB/c mouse assessed as mortality at 10 mg/kg, po treated for 5 days after 24 hrs of viral inoculation; assay type: functional, Cowpox virus (Brighton Red)
[31] = system: Vaccinia virus; test: Antiviral activity against Vaccinia virus WR in HFF cells assessed as reduction of viral replication after 3 days; assay type: functional, organism-based; details: Orthopoxvirus vaccinia, 72 h
[32] = system: Vaccinia virus; test: Antiviral activity against Vaccinia virus WR infected BALB/c mouse assessed as mortality at 3 mg/kg, po treated for 5 days after 48 hrs of viral inoculation; assay type: functional, Orthopoxvirus vaccinia
[33] = system: Cowpox virus; test: Antiviral activity against Cowpox virus Brighton infected BALB/c mouse assessed as log reduction of viral titer per gram of spleen at 30 mg/kg, po treated for 5 days after 24 hrs of viral inoculation; assay type: functional, Cowpox virus (Brighton Red)
[34] = system: Cowpox virus; test: Antiviral activity against Cowpox virus Brighton infected BALB/c mouse assessed as mortality at 3 mg/kg, po treated for 5 days after 24 hrs of viral inoculation; assay type: functional, Cowpox virus (Brighton Red)
[35] = system: Cowpox virus; test: Toxicity in Cowpox virus Brighton infected BALB/c mouse assessed as survival at 30 mg/kg, po treated for 5 days after 24 hrs of viral inoculation; assay type: functional, organism-based; design: dose 30 mg/kg; details: Cowpox virus (Brighton Red)
[36] = system: Vaccinia virus; test: Antiviral activity against Vaccinia virus WR infected BALB/c mouse assessed as mortality at 10 mg/kg, po treated for 5 days after 24 hrs of viral inoculation; assay type: functional, Orthopoxvirus vaccinia
[37] = system: Cowpox virus; test: Antiviral activity against Cowpox virus Brighton infected BALB/c mouse assessed as mean death day at 10 mg/kg, po treated for 5 days after 48 hrs of viral inoculation; assay type: functional, Cowpox virus (Brighton Red)
[38] = system: Cowpox virus; test: Antiviral activity against Cowpox virus Brighton infected BALB/c mouse assessed as mortality at 10 mg/kg, po treated for 5 days after 48 hrs of viral inoculation; assay type: functional, Cowpox virus (Brighton Red)
[39] = system: Vaccinia virus; test: Antiviral activity against Vaccinia virus WR infected BALB/c mouse assessed as mortality at 10 mg/kg, po treated for 5 days after 72 hrs of viral inoculation; assay type: functional, Orthopoxvirus vaccinia
[40] = system: Vaccinia virus; test: Antiviral activity against Vaccinia virus WR infected BALB/c mouse assessed as mean death day at 10 mg/kg, po treated for 5 days after 72 hrs of viral inoculation; assay type: functional, Orthopoxvirus vaccinia

CCCCCCCCCCCCCCCCOCCCOP(=O)(O)CO[C@H](CO)Cn1cnc2c(N)ncnc21
Activity [1]: 9.2 days
Activity [2]: 8 days
CC50 at 168 h [3]: 9700 nM
selectivity ratio [4]: 970
log10PFU [5]: 4 g
Activity [6]: 13%
Activity [7]: 7 days
Activity [8]: 13%
log10PFU [9]: 4 g
Activity [10]: 7%
Activity [11]: 27%
Activity [12]: 13%
Activity [13]: 11 days
selectivity ratio [14]: 32
Activity [15]: 7.8 days
Activity [16]: 10.1 days
Activity [17]: 13.8 days
log10PFU [18]: 2.5 g
EC50 [19]: 10 nM
log10PFU [20]: 4 g
Activity [21]: 87%
Activity [22]: 12.7 days
EC50 [23]: 20 nM
Activity [24]: Non-toxic
Activity [25]: 11.4 days
Activity [26]: 16.5 days
log10PFU [27]: 2.5 g
Activity [28]: 7 days
Activity [29]: 8 days
Activity [30]: 67%
EC50 [31]: 300 nM
Activity [32]: 33%
log10PFU [33]: 2.5 g
Activity [34]: 93%
Activity [35]: Not toxic
Activity [36]: 0%
Activity [37]: 12.3 days
Activity [38]: 27%
Activity [39]: 53%
Activity [40]: 9.1 days

CCCCCCCCCCCCCCCCCCOCCOP(=O)(O)CO[C@H](CO)Cn1cnc2c(N)ncnc21
Activity [1]: 7.9 days
Activity [2]: 10.5 days
CC50 at 168 h [3]: 1500 nM
selectivity ratio [4]: 150
log10PFU [5]: 4 g
Activity [6]: 7%
Activity [7]: 8.8 days
Activity [8]: 20%
log10PFU [9]: 4 g
Activity [10]: 73%
Activity [11]: 67%
Activity [12]: 33%
Activity [13]: 9.7 days
selectivity ratio [14]: 15
Activity [15]: 9 days
Activity [16]: 11.1 days
Activity [17]: 14 days
log10PFU [18]: 2.5 g
EC50 [19]: 10 nM
log10PFU [20]: 4 g
Activity [21]: 40%
Activity [22]: 10.6 days
EC50 [23]: 20 nM
Activity [24]: Non-toxic
Activity [25]: 13.7 days
Activity [26]: 9.5 days
log10PFU [27]: 2.5 g
Activity [28]: 8.3 days
Activity [29]: 10.3 days
Activity [30]: 7%
EC50 [31]: 100 nM
Activity [32]: 53%
log10PFU [33]: 2.5 g
Activity [34]: 60%
Activity [35]: Not toxic
Activity [36]: 0%
Activity [37]: 11 days
Activity [38]: 20%
Activity [39]: 33%
Activity [40]: 9 days
